{"source": "patent US20090298786A1", "about": "“METHODS OF TREATING VIRAL INFECTIONS WITH ANTHRACYCLINE ANTIBIOTICS” (priority 2007, published 2009)", "key": {"[1]": {"biological_target": "T1, HCV helicase (helicase domain of NS3 protein) (UniProt P27958)", "T1 construct": "The helicase domain of NS3 protein was expressed in a baculovirus system in HF insect cell line; fused on or other part: Histidine tag, inferred from the Talon cobalt column purification ('histidine repetitions')", "T1 sequence (P27958 1027-1657)": "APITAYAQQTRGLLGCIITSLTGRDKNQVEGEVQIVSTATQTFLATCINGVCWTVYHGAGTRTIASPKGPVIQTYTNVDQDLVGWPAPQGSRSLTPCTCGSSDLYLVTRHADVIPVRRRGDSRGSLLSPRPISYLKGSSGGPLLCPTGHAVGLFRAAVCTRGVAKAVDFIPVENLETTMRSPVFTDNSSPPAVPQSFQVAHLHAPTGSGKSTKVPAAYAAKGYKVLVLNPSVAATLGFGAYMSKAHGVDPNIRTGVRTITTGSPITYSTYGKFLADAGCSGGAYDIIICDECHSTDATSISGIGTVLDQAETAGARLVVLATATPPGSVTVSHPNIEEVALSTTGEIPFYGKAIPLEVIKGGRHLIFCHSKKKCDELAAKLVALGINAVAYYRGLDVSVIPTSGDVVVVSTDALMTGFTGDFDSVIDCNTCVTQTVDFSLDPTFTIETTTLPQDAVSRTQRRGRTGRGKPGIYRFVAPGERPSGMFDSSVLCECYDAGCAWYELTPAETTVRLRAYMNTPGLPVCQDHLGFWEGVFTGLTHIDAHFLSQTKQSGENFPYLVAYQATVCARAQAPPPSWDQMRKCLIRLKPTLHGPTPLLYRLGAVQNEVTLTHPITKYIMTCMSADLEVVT", "assay": "Fluorometric (FRET) antihelicase activity assay", "assay_type": "biochemical, hepatitis C virus (HCV)", "details": "concentration inhibiting 50% of helicase activity; 10 nM enzyme pre-incubated 15 min with derivative, unwinding at 30° C. for 60 min; read-out: IC50", "source_text": "A reaction takes place on a 96- or 384-well microtitration plate and a course of the reaction is observed in real time.\nThe helicase domain of NS3 protein was expressed in a baculovirus system in HF insect cell line.\nIn this assay, FAM fluorescence is quenched by fluorescence energy transfer (FRET) to the BHQ molecule, while unwinding of double-stranded DNA structure leads to decrease of FRET phenomenon and increase of FAM fluorescence signal. The assay allows for examining a large number of samples, i.e., different helicase inhibitors at various concentrations and with many repetitions, in standardized conditions. The reaction is conducted in a microtitration plate. The reaction process is observed in real time.\nThe enzyme (10 nM) was pre-incubated with the tested derivatives dissolved in DMSO (0.005 to 20 μM concentration) without ATP for 15 min at room temperature. The reaction of DNA unwinding was started by addition of ATP and was carried out at 30° C. for 60 min in a Synergy HTi (Biotek) fluorometer. […] Fluorescence was measured every 2 mins.\nThe enzyme activity was calculated as the initial reaction velocity from the linear part of reaction curve (fluorescence growth as a function of time) using a linear regression method. Inhibition was calculated as comparison of activity of the helicase incubated with inhibitor to activity of the helicase incubated without inhibitor, but with a proper concentration of DMSO, expressed in percent."}, "[2]": {"tested_on": "subgenomic HCV genotype 1 (con 1) replicon", "assay": "Antiviral activity, subgenomic HCV replicon luciferase test in Huh-7 cells", "assay_type": "cell-based, hepatitis C virus", "description": "Studies on inhibition of HCV replication, using human liver cancer cell line (Huh7) carrying a subgenomic HCV replicon of genotype 1 (con1) with a reporter/selection fusion protein luc-ubi-neo, were also carried out.\nIn order to examine antiviral activity and to determine therapeutic index of exemplary anthracycline antibiotics, subgenomic replicon of hepatitis C virus was used, which is a modified genome of HCV lacking structural genes. The replicon was a non-infective form of the virus, and therefore is safe to work with and makes it easier for high-throughput screening of potential inhibitors of its replication.\nAdditional simplification was the use of reporter protein—luciferase, whose activity (i.e., luminescence generated by it after addition of substrate) was proportional to the amount of the protein expressed, which allowed determination of HCV RNA replication level and its inhibition by virus replication inhibitors.\nThe human hepatoma cell line Huh-7 and the plasmid pFK-luc-ubi-neo/NS3-3′/Con1/5.1 carrying the subgenomic HCV genotype 1 (con 1) replicon with the luc-ubi-neo reporter/selective fusion protein (Vrolijk J. M. et al., J. Virol. Methods 110: 201-209, 2003), used in the experiments, were provided by Dr. Ralf Bartenschlager (Department of Molecular Virology, University of Heidelberg, Heidelberg). Huh-7 clones carrying persistently-replicating subgenomic HCV replicons were obtained using the following modification of the protocol described by Lohman V. et al. (J. Virol. 75:1437-1449, 2001).\n(§1) Huh-7 cells were grown in minimal essential medium (Dulbecco's Modified Minimal Essential Medium, DMEM; Invitrogen) with high glucose concentration (4.5 g/L) supplemented with 2 mM L-glutamine and 1 μM non-essential amino acids, such as: glycine, L-alanine, L-asparagine, L-aspartic acid, L-glutamic acid, L-proline and L-serine, and also with 100 U/mL penicilin, 100 μg/mL streptomycin, and 10% fetal bovine serum (FBS, Sigma). In cultures of cells bearing the subgenomic HCV replicon 250 μg/mL of aminoglycoside antibiotics G418 (Geneticin; Invitrogen) was added to the medium. Cells were grown at 37° C. (5% CO2) and were passaged twice per week, diluted 7 to 10 times, according to the protocol described in Vrolijk J. M. et al., J. Virol. Methods 110:201-209, 2003.\n(§2) The Huh-7 cells carrying replicons were cultivated with the following concentrations of anthracycline antibiotics: 5 to 200 nM for 4 days to determine their influence on HCV RNA replication and 5 to 5000 nM for 3 days to determine cytotoxicity. The medium with 1% DMSO was used as a control.\nConditions of the antiviral activity test of antracycline antibiotics were based on the protocol described by Paeshuyse J. et al. (Biochem. Biophys. Res. Commun. 348: 139-144, 2006). A logarithmic culture of HCV replicon-carrying cells was diluted in complete DMEM medium supplemented with 250 μg/ml G418 to the concentration of 5-7×10^3 cells per mL and aliquoted into 96-well white microtitration plate with optical bottom (Nunc) (100 μL per well). After 24 h at 37° C. the medium was removed and dilution of inhibitors in the range of 5 to 200 nM was added in 100 μL of fresh DMEM medium without G418. Huh-7 cells with 1% DMSO were used as a control. After 4 days at 37° C., the medium was removed and 40 μL of mixture of Glo Lysis buffer and Bright-Glo luciferase assay system (Promega) was added to each well. After 2 mins of incubation luminescence was measured with a Synergy HTi (Biotek) device. The experiment was repeated at least three times with three repetitions for each inhibitor concentration."}, "[3]": {"biological_target": "helicase", "details": "Borowski P. et al., Antiviral Res. 55, 397-412, 2002; read-out: IC50 (antihelicase activity); cited from earlier work"}, "[4]": {"tested_on": "Huh-7 cells carrying replicons", "assay": "Cytotoxicity (MTT) in HCV replicon-carrying Huh-7 cells", "details": "Huh-7 replicon cells, 3 days, MTT, cell growth inhibited by 50%", "description": "as §1, §2\n(§3) When determining cytotoxicity, as in the antiviral test, logarithmic culture of HCV replicon-carrying cells was diluted in complete DMEM medium supplemented with 250 μg/mL G418 to the concentration of 5−7×10^3 cells per mL and aliquoted into 96-well mictotitration cell culture plate (100 μL per well). After 24 h at 37° C. medium was removed and inhibitors were added at concentrations of 5 to 5000 nM in 100 μL of fresh DMEM medium without G418. After 3 days at 37° C., the medium was removed and 100 μL of fresh DMEM medium with 0.5 mg/mL of MTT (tetrazolium bromide, Sigma) was added to each well. After 3 to 4 hours of incubation at 37° C., the medium with MTT was removed and 100 μL of 0.04 N HCl solution in absolute isopropanol was added to solubilize the precipitated dye. Dye absorbance was measured at 570 nm, while absorbance of the background was measured at 650 nm using Synergy HTi (Biotek). The experiment was repeated at least 3 times with 3 repetitions for each inhibitor concentration."}, "[5]": {"assay": "Cytotoxicity (MTT) in HCV replicon-carrying Huh-7 cells", "details": "human, Huh-7 cells carrying subgenomic HCV replicon", "description": "as §1, §2, §3"}, "[6]": {"details": "Hepatitis C virus, Huh-7, 96 h, Huh-7 replicon cells, 4 days, luminescence reduced by 50%"}, "[7]": {"details": "Huh-7 replicon cells, 4 days, luminescence reduced by 50%, read-out: EC50"}}, "note": "Read-outs that look alike come from different tables or passages of the source."}
{"molecule": "COc1cccc2c1C(=O)c1c(O)c3c(c(O)c1C2=O)C[C@@](O)(C(C)=O)C[C@@H]3O[C@H]1C[C@H](N)[C@H](O)[C@H](C)O1", "note": "[Daunorubicin, reference compound]", "values": [{"measurement": "IC50", "setting": "[1]", "result": 6050, "unit": "nM"}, {"measurement": "EC50", "setting": "[2]; [6]", "result": 31.2, "unit": "nM"}, {"measurement": "IC50", "setting": "[3]", "result": 57000, "unit": "nM"}]}
{"molecule": "COc1cccc2c1C(=O)c1c(O)c3c(c(O)c1C2=O)CC(O)(C(=O)CO)CC3OC1CC(N=C(C)N2CCOCC2)C(O)C(C)O1", "note": "(stereo not drawn) [Derivative 54]", "values": [{"measurement": "IC50", "setting": "[1]", "result": 510, "unit": "nM"}, {"measurement": "EC50", "setting": "[2]; [7]", "result": 129, "unit": "nM"}, {"measurement": "CC50", "setting": "[4]", "result": 4280, "unit": "nM"}]}
{"molecule": "COc1cccc2c1C(=O)c1c(O)c3c(c(O)c1C2=O)CC(O)(C(C)=O)CC3OC1CC(N=CN2CCCCCC2)C(O)C(C)O1.Cl", "note": "(stereo not drawn) [Derivative 75]", "values": [{"measurement": "IC50", "setting": "[1]", "result": 2330, "unit": "nM"}, {"measurement": "activity (EC50) fold higher than that of epidoxorubicin, doxorubicin, epidaunorubicin, or daunorubicin", "setting": "[2]; HCV replicon", "result": 4, "unit": "fold"}, {"measurement": "EC50", "setting": "[2]; [7]", "result": 8.4, "unit": "nM"}, {"measurement": "CC50", "setting": "[4]", "result": 47.9, "unit": "nM"}]}
{"molecule": "COc1cccc2c1C(=O)c1c(O)c3c(c(O)c1C2=O)CC(O)(C(C)=O)CC3OC1CC(N=C(C)N2CCN(C)CC2)C(O)C(C)O1", "note": "(stereo not drawn) [Derivative 94]", "values": [{"measurement": "IC50", "setting": "[1]", "result": "80 ± 20", "unit": "nM"}, {"measurement": "EC50", "setting": "[2]; [6]", "result": 56.9, "unit": "nM"}, {"measurement": "CC50 at 3 days", "setting": "[5]", "result": 1090, "unit": "nM"}]}
{"molecule": "COc1cccc2c1C(=O)c1c(O)c3c(c(O)c1C2=O)CC(O)(C(=O)CO)CC3OC1CC(N=C(C)N2CCOCC2)C(O)C(C)O1", "note": "(stereo not drawn) [Derivative 125]", "values": [{"measurement": "IC50", "setting": "[1]", "result": 290, "unit": "nM"}, {"measurement": "EC50", "setting": "[2]; [7]", "result": 114, "unit": "nM"}, {"measurement": "CC50", "setting": "[4]", "result": 909, "unit": "nM"}]}
{"molecule": "COc1cccc2c1C(=O)c1c(O)c3c(c(O)c1C2=O)CC(O)(C(=O)CO)CC3OC1CC(N=C(C)N2CCCCC2)C(O)C(C)O1", "note": "(stereo not drawn) [Derivative 127]", "values": [{"measurement": "IC50", "setting": "[1]", "result": 220, "unit": "nM"}]}
{"molecule": "COc1cccc2c1C(=O)c1c(O)c3c(c(O)c1C2=O)CC(O)(C(=O)CO)CC3OC1CC(N=C(C)N2CCN(C)CC2)C(O)C(C)O1", "note": "(stereo not drawn) [Derivative 131]", "values": [{"measurement": "IC50", "setting": "[1]", "result": 130, "unit": "nM"}]}
{"molecule": "COc1cccc2c1C(=O)c1c(O)c3c(c(O)c1C2=O)CC(O)(C(=O)CO)CC3OC1CC(N=C(C)N2CCc3ccccc32)C(O)C(C)O1", "note": "(stereo not drawn) [Derivative 133]", "values": [{"measurement": "IC50", "setting": "[1]", "result": 380, "unit": "nM"}, {"measurement": "EC50", "setting": "[2]; [7]", "result": 138, "unit": "nM"}, {"measurement": "CC50", "setting": "[4]", "result": 1570, "unit": "nM"}]}
{"molecule": "CCN(CC)C(C)=NC1CC(OC2CC(O)(C(=O)CO)Cc3c(O)c4c(c(O)c32)C(=O)c2c(OC)cccc2C4=O)OC(C)C1O", "note": "(stereo not drawn) [Derivative 135]", "values": [{"measurement": "IC50", "setting": "[1]", "result": 1240, "unit": "nM"}]}
{"molecule": "COc1cccc2c1C(=O)c1c(O)c3c(c(O)c1C2=O)C[C@@](O)(C(=O)CO)C[C@@H]3O[C@H]1C[C@H](N)[C@H](O)[C@H](C)O1", "note": "[Doxorubicin, reference compound]", "values": [{"measurement": "EC50", "setting": "[2]; [6]", "result": 31.2, "unit": "nM"}, {"measurement": "EC50", "setting": "[2]; Huh-7 replicon cells, 4 days, luminescence reduced by 50%", "result": 42.9, "unit": "nM"}, {"measurement": "CC50 at 3 days", "setting": "[5]", "result": 332, "unit": "nM"}, {"measurement": "IC50", "setting": "[3]", "result": 5000, "unit": "nM"}]}
{"molecule": "COc1cccc2c1C(=O)c1c(O)c3c(c(O)c1C2=O)C[C@@](O)(C(C)=O)C[C@@H]3O[C@H]1C[C@H](N)[C@@H](O)[C@H](C)O1", "note": "[Epidaunorubicin, reference compound]", "values": [{"measurement": "IC50", "setting": "[1]", "result": 3730, "unit": "nM"}, {"measurement": "EC50", "setting": "[2]; [7]", "result": 31.2, "unit": "nM"}]}
{"molecule": "COc1cccc2c1C(=O)c1c(O)c3c(c(O)c1C2=O)C[C@@](O)(C(=O)CO)C[C@@H]3O[C@H]1C[C@H](N)[C@@H](O)[C@H](C)O1", "note": "[Epidoxorubicin, reference compound]", "values": [{"measurement": "CC50 at 3 days", "setting": "[5]", "result": 675, "unit": "nM"}, {"measurement": "IC50", "setting": "[3]", "result": 750, "unit": "nM"}]}
{"molecule": "O=C1c2c(O)ccc(O)c2C(=O)c2c(NCCNCCO)ccc(NCCNCCO)c21", "note": "[mitoxantrone]", "values": [{"measurement": "IC50", "setting": "[3]", "result": 6700, "unit": "nM"}]}
{"molecule": "COC(=O)[C@@H]1c2cc3c(c(O)c2[C@@H](O[C@@H]2O[C@@H](C)[C@H](OC)[C@@](C)(OC)[C@H]2OC)C[C@]1(C)O)C(=O)c1c(O)cc2c(c1C3=O)O[C@@H]1O[C@@]2(C)[C@H](O)[C@@H](N(C)C)[C@@H]1O", "note": "[nogalamycin]", "values": [{"measurement": "IC50", "setting": "[3]", "result": 100, "unit": "nM"}]}
{"molecule": "NC(=O)c1ncn([C@@H]2O[C@H](CO)[C@@H](O)[C@H]2O)n1", "note": "[ribavirin, reference compound]", "values": [{"measurement": "EC50", "setting": "[2]; Hepatitis C virus, Huh-7, ribavirin, comparison drug", "result": 120000, "unit": "nM"}]}
